Measured values taken from patent publication US6214876A, “Indene-1-acetamide sPLA2 inhibitors” (Eli Lilly and Company, priority 1994, dated 2001).

Target: T1, recombinant human secreted phospholipase A2 (Homo sapiens, UniProt P14555)
T1 sequence (P14555 21-144): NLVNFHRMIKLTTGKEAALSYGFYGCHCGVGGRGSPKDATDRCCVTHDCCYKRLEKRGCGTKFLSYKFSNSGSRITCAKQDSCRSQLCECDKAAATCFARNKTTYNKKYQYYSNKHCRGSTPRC
Test: PLA2 Chromogenic Assay (human secreted phospholipase A2 inhibition)
Type: biochemical
Details: racemic diheptanoyl thio-PC 1 mM, pH 7.5, 40° C., 30 minutes, 405 nanometers, triplicate, read-out: Compound IC50
From the text: The following chromogenic assay procedure was used to identify and evaluate inhibitors of recombinant human secreted phospholipase A2. The assay described herein has been adapted for high volume screening using 96 well microtiter plates. A general description of this assay method is found in the article, "Analysis of Human Synovial Fluid Phospholipase A2 on Short Chain Phosphatidylcholine-Mixed Micelles: Development of a Spectrophotometric Assay Suitable for a Microtiterplate Reader", by Laure J. Reynolds, Lori L. Hughes, and Edward A Dennis, Analytical Biochemistry,204, pp. 190-197, 1992 (the disclosure of which is incorporated herein by reference): […]
A measured volume of racemic dipheptanoyl thio PC supplied in chloroform at a concentration of 100 mg/ml is taken to dryness and redissolved in 10 millimolar TRITON X-100™ nonionic detergent aqueous solution. […]
5. Read absorbance of wells at 405 nanometers with an automatic plate reader.
All compounds were tested in triplicate. […] Compounds initially found to be active were reassayed to confirm their activity and, if sufficiently active, IC50 values were determined. […] In all cases, % inhibition measured at 405 nanometers generated by enzyme reactions containing inhibitors relative to the uninhibited control reactions was determined. […] IC50 were determined by plotting log concentration versus inhibition values in the range from 10-90% inhibition.

| IC50 [nM] | SMILES |
| --- | --- |
| 910 | CC1=C(CC(N)=O)c2cc(OCCCC(=O)O)ccc2/C1=C\c1ccccc1 [Compound 14a, 4-[3(z)-benzylidene-1-carbamoylmethyl-2-methyl-3H-inden-6-yloxy]-butanoic acid] |
| 420 | CC1=C(CC(N)=O)c2c(OCC(=O)O)cccc2/C1=C\c1ccccc1 [Compound 14b, [3(z)-benzylidene-1-carbamoylmethyl-2-methyl-3H-inden-7-yloxy]-acetic acid] |
